Data reported in article PMC6286779, “HLA-A2-Restricted Epitopes Identified from MTA1 Could Elicit Antigen-Specific Cytotoxic T Lymphocyte Response” (Journal of Immunology Research, 2018).
Values belong to the molecule of their own block, whether it stands above or below them. No end group written: not given here.

What was measured:
[1] = molecular target: HLA-A*0201 molecule on T2 cells (human (endogenous in T2) | human); experiment: flow cytometry on cells; stability assay: T2 cells loaded with peptide (50 μg/ml) and 3 μg/ml β2-M for 18 h at 37°C, brefeldin A (10 μg/ml) 1 h, then 0, 2, 4 and 6 h at 37°C; stained with BB7.2; DC50 = time for the loss of 50% of the HLA-A*0201/peptide complexes stabilized at 0 h
[2] = molecular target: T1, peptide/HLA-A*0201 complexes (Homo sapiens, UniProt P04439, D140Y/D185E/D98H/E176V/E277Q/G131W/G231S/I119V/I121R/I166T/I218V/L300P/L318F/N151K/N90K/P208A/P217A/Q86G/Q94H/R138H/R169H/T345S); experiment: T2 stabilization (stability) assay; assay type: binding; conditions: T2 cells, peptide 50 μg/ml, 18 h, then brefeldin A 10 μg/ml 1 h; read at 0, 2, 4, 6 h, 37°C; flow cytometry
T1 construct: endogenous in cells; host or cells: T2 lymphoblastic cell line (TAP-deficient)
Method: For the stability assay, each of the selected peptides (50 μg/ml) was incubated with T2 cells (1 × 10^6 cells/ml) for 18 h in serum-free RPMI 1640 medium supplemented with 3 μg/ml β2-M at 37°C. Thereafter, cells were washed twice and incubated with brefeldin A (10 μg/ml, eBiosciences, USA) for 1 h. Subsequently, the cells were washed and incubated for 0, 2, 4, and 6 h at 37°C. Cells were washed twice, stained with BB7.2 for 0.5 h at 4°C. Finally, cells were collected, washed, and analyzed by flow cytometry. Dissociation complex 50 (DC50) was defined as time (t) required for the loss of 50% of the HLA-A^∗0201/peptide complexes stabilized at 0 h.

MCF-7 (HLA-A2+, MTA1+) = experiment: LDH cytotoxicity assay, CTLs induced in vitro; assay type: cell-based, human; conditions: peptide-induced CTLs from healthy donors, E/T 50 : 1
Method: (§1) CTL induction in vitro was conducted according to the procedures previously described. Briefly, PBMCs from eight HLA-A^∗02^+ healthy donors were isolated using Ficoll-Paque density gradient centrifugation and resuspended in RPMI 1640 medium supplemented with 10% FBS. Then, PBMCs were stimulated three times (once a week) with the indicated peptides (10 μg/ml) or protein MTA1(1–283) (at final concentrations of 0, 1, 10, 30, and 50 μg/ml) for 21 days. Human recombinant cytokine interleukin-2 (IL-2) (50 U/ml) was added on day 3 and 1 day after each stimulation. The cytotoxic assay (lactate dehydrogenase (LDH) assay) and IFN-γ secretion enzyme-linked immunospot (ELISPOT) assay were performed on day 21.
(§2) Cytotoxic activity of induced T cells was tested based on the quantitation of LDH release using the nonradioactive cytotoxicity assay kit (Promega, USA) at the gradient E/T ratio [29, 31]. Target cells which expressed different levels of MTA1 or peptide-pulsed T2 cells were used as target cells. The anti-human HLA-A2 antibody (BB7.2) was added 30 min before adding effector cells to determine the HLA restriction. Target cells (5 × 10^3/well) were cocultured with the effector cells at 37°C for 4 h. The percentage of specific lysis of the target cells was determined using the equation: percentage of specific lysis = [(experimental release − effector spontaneous release − target spontaneous release)/(target maximum release − target spontaneous release)] × 100.

SW620 (HLA-A2+, MTA1+) = experiment: LDH cytotoxicity assay, CTLs induced in vitro; assay type: cell-based, human; conditions: CTLs induced by peptide 10 μg/ml from donor no. 6; E/T 50 : 1; LDH release, 4 h; n = 3
Method: as §1, §2

[3] = tested on: MDA-MB-231 (HLA-A2+, MTA1+); experiment: LDH cytotoxicity assay, CTLs induced in vitro; assay type: cell-based, human; conditions: CTLs induced by peptide 10 μg/ml from donor no. 6; E/T 50 : 1; LDH release, 4 h; n = 3
Method: as §1, §2

HT-29 (HLA-A2−, MTA1+) = experiment: LDH cytotoxicity assay, CTLs induced in vitro; assay type: cell-based, human; conditions: peptide-induced CTLs, HLA-A2-negative control target
Method: as §1, §2

[4] = tested on: PBMCs from HLA-A*02+ healthy donors; experiment: IFN-γ ELISPOT of CTLs induced in vitro; assay type: cell-based, human; conditions: PBMCs of six donors stimulated with peptide 10 μg/ml three times, day 21; stimulators peptide-pulsed T2 cells (50 μg/ml); 1 × 10^5 effectors; mean, n = 6
Method: as §1
The ELISPOT assay was performed using a commercial kit (Dakewe, China) according to the procedures previously described. Briefly, T2 cells incubated with/without candidate peptide (50 μg/ml) were used as the stimulating cells, effector cells (1 × 10^5) and stimulator cells (peptide-pulsed T2 cells or T2 cells only, 1 × 10^5) were seeded into the 96-well plate precoated with an anti-human (or anti-mouse) IFN-γ antibody. After incubation at 37°C for 18 h, cells were removed, and plates were processed for analysis as instructed. The spot number was determined automatically using a computer-assisted spot analyzer (Dakewe, China).

HLA-A*0201 molecules = HLA-A*0201 molecules (Homo sapiens, UniProt P04439, D140Y/D185E/D98H/E176V/E277Q/G131W/G231S/I119V/I121R/I166T/I218V/L300P/L318F/N151K/N90K/P208A/P217A/Q86G/Q94H/R138H/R169H/T345S); experiment: T2 binding assay; conditions: T2 cells 1 × 10^6 cells/ml, peptide 50 μg/ml, 3 μg/ml β2-M, serum-free RPMI 1640, 18 h, 37°C; BB7.2 staining, flow cytometry; FI > 1.5 = high affinity
Method: The binding affinity of these peptides to HLA-A^∗0201 was evaluated according to our previous study. Briefly, T2 cells (1 × 10^6 cells/ml) were incubated with each peptide (50 μg/ml) and 3 μg/ml human β2-microglobulin (β2-M, Merck, Germany) in serum-free RPMI 1640 medium for 18 h at 37°C in a humidified atmosphere of 5% CO2. Then cells were washed twice and incubated with the anti-human HLA-A2 PE-Cyanine7 mAb, BB7.2 (eBioscience, USA) for 0.5 h at 4°C. Finally, cells were collected, washed, and analyzed using flow cytometry (FACSCalibur, Becton Dickinson, USA). The fluorescence index (FI) calculation was performed as follows: FI = [(mean fluorescence intensity (MFI) of the given peptide − background) − (MFI of the PBS control group − background)]/[(MFI of the PBS control group − background)]. The MFI value of cells untreated with peptides and antibodies was employed as background. Peptides with an FI factor of more than 1.5 were classed as high-affinity candidates.

[5] = tested on: SW620 incubated with an anti-human HLA-A2 antibody; experiment: LDH cytotoxicity assay, CTLs induced in vitro, HLA-A2 blocked; assay type: cell-based; conditions: peptide-induced CTLs, BB7.2 added 30 min before effectors
Method: as §1, §2

[6] = tested on: Het-1A (HLA-A2+, MTA1low); experiment: LDH cytotoxicity assay, CTLs induced in vitro; assay type: cell-based, human; conditions: peptide-induced CD8+ T cells, E/T 50 : 1
Method: as §1, §2

[7] = molecular target: HLA-A*0201 molecule on T2 cells (human (endogenous in T2) | human); experiment: flow cytometry on cells; T2 binding assay: T2 cells (1 x 10^6 cells/ml) with peptide (50 μg/ml) and 3 μg/ml human β2-M in serum-free RPMI 1640, 18 h, 37°C; surface HLA-A2 stained with BB7.2 PE-Cyanine7; fluorescence index (FI); FI > 1.5 classed as high affinity

Molecule: HBcAg 18-27 peptide
- DC50 [1]: > 6 h

- DC50: time required for the loss of 50% of the HLA-A*0201/peptide complexes stabilized at 0 h [2]: >6 h
- FI (fluorescence index) (HLA-A*0201 molecules): 1.56
Molecule: ALADKHATL [Peptide P57]
- rate of MCF-7 cell lysis (MCF-7 (HLA-A2+, MTA1+)): 17.6%
- lysis rate of SW620 cells (SW620 (HLA-A2+, MTA1+)): 45.8%
- lysis rate of MDA-MB-231 cells [3]: 30.5%
- lysis of HT-29 cells (HT-29 (HLA-A2−, MTA1+)): did not lyse
- IFN-γ ELISPOT mean spot intensities [4]: 543
- lysis of SW620 cells incubated with an HLA-A2 blocking antibody [5]: did not lyse

- FI (fluorescence index) (HLA-A*0201 molecules): 0.22
Molecule: YQADITDLL [Peptide P173]

- DC50: time required for the loss of 50% of the HLA-A*0201/peptide complexes stabilized at 0 h [2]: >6 h
- FI (fluorescence index) (HLA-A*0201 molecules): 2.61
Molecule: FLSRQLESL [Peptide P109]
- rate of MCF-7 cell lysis (MCF-7 (HLA-A2+, MTA1+)): 23.8%
- lysis rate of SW620 cells (SW620 (HLA-A2+, MTA1+)): 65.5%
- lysis rate of MDA-MB-231 cells [3]: 32.2%
- lysis of HT-29 cells (HT-29 (HLA-A2−, MTA1+)): did not lyse
- rate of Het-1A cell lysis [6]: 11.9%
- IFN-γ ELISPOT mean spot intensities [4]: 453
- lysis of SW620 cells incubated with an HLA-A2 blocking antibody [5]: did not lyse

- DC50: time required for the loss of 50% of the HLA-A*0201/peptide complexes stabilized at 0 h [2]: >6 h
- FI (fluorescence index) (HLA-A*0201 molecules): 1.905
Molecule: ILIGETIKI [COX-2_321-329, reference compound]

- FI (fluorescence index) [7]: 1.91
- DC50 [1]: > 6 h
B1: cyclooxygenase-2 (COX-2) 321-329 peptide (peptide)
peptide: ILIGETIKI
modifications: not fully specified

- FI (fluorescence index) [7]: 1.28
- DC50 [1]: > 6 h
B2: MTA1 peptide P129 (peptide)
peptide: TLLNETESL

- FI (fluorescence index) [7]: 0.22
B3: MTA1 peptide P173 (peptide)
peptide: YQADITDLL

- FI (fluorescence index) [7]: 2.61
- DC50 [1]: > 6 h
B4: MTA1 peptide P109 (peptide)
peptide: FLSRQLESL

- FI (fluorescence index) [7]: 1.56
- DC50 [1]: > 6 h
B5: MTA1 peptide P57 (peptide)
peptide: ALADKHATL

- FI (fluorescence index) [7]: 2.08
- DC50 [1]: > 2 h
B6: MTA1 peptide P22 (peptide)
peptide: YLIRRIEEL
